# Changes are numbered by the printed parent chain. Where two headings read alike, the source gives them in different places.
# Tests used:
# AR protein [1] = biological target: T1, AR protein (Homo sapiens, UniProt P10275); assay: Western blotting analysis of AR protein levels in VCaP cells, band quantification, DC50/DC90; assay type: cell-based; details: for DC90: calculated from DC50 and Hillslope
# T1 construct: endogenous in cells; host or cells: VCaP
# T1 sequence (P10275 1-920): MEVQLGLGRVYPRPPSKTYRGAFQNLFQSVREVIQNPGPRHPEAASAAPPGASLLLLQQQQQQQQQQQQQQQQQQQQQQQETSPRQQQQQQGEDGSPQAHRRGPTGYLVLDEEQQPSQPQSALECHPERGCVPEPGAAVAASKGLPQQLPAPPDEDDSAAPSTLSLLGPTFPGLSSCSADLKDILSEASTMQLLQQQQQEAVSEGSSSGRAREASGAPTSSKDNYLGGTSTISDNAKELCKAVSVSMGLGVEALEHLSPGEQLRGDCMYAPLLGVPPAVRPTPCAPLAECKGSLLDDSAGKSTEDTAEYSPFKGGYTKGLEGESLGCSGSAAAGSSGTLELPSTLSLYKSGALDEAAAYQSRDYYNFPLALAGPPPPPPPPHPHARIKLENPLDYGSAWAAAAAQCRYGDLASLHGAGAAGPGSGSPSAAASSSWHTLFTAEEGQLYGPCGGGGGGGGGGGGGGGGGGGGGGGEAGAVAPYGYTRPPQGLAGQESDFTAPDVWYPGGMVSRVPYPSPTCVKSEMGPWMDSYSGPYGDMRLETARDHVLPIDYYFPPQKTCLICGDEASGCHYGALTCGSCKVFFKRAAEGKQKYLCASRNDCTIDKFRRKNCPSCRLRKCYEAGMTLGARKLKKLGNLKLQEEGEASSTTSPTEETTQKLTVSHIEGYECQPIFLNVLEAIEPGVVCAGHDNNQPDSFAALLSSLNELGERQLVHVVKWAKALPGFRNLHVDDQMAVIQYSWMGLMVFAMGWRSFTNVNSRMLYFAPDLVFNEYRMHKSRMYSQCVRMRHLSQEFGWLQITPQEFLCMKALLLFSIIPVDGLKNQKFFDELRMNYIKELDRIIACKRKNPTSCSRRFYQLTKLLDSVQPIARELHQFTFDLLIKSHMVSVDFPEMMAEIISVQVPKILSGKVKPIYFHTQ
# Method in brief: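 VCaP cells treated with compounds, lysed in RIPA and probed for AR by Western blot with GAPDH loading control. Band intensities normalised to GAPDH; DC50 from curve fit, DC90 calculated from DC50 and Hill slope via four-parameter equation.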
# AR protein [2] = assay: Western blotting analysis of AR protein levels in 22RV1 cells, band quantification, DC50/DC90; assay type: cell-based; details: prostate cancer 22RV1 cells, 24 h treatment; for DC90: calculated from DC50 and Hillslope
# Experimental: (§1) The appropriate cell line, e.g., prostate cancer LNCaP, Vcap, or 22RV1 cell line, was treated with Compounds of the Disclosure as indicated. The treated cells were lysed with RIPA buffer. The AR level in the cell lysates was examined by western blotting and a specific AR antibody (ab194196, Abcam, Cambridge, Mass. 02139) with concentration of 1:20,000. GAPDH was used as a loading control.
# (§2) Bands were quantified with ImageJ software. The relative numbers of each band obtained from normalization with its corresponding GAPDH level were compared with Prism 8 software. The DC50 values were produced from Prism 8, and the DC90 values were calculated with an equation=Bottom+(Top−Bottom)/(1+10^((Log EC50−X)*HillSlope) based on DC50 and Hillslope values.
# AR protein [3] = biological target: T2, AR protein (Homo sapiens, UniProt P10275, T878A); assay: Western blotting analysis of AR protein levels in LNCaP cells, band quantification, DC50/DC90; assay type: cell-based; details: prostate cancer LNCaP cells, 24 h treatment; for DC90: calculated from DC50 and Hillslope
# T2 construct: endogenous in cells; host or cells: LNCaP
# T2 sequence (P10275 1-920 T878A): T1 sequence (P10275 1-920) with T878A
# Experimental: as §1, §2
# [4] = Mouse PK studies after oral and IV dosing; assay type: in vivo; details: for AUC(0-t) / clearance / half-life / Vd / Cmax / Tmax: in vivo; for clearance: read-out: IV Cl (converted); for Vd: read-out: IV VSS
# Experimental: The pharmacokinetics of representative Compounds of the Disclosure were determined after oral and IV dosing at the concentrations indicated in mouse (Table 7). […] The vehicles used in these studies are either (i) 10% PEG400+90% PBS (adjusted to pH to 8.0 by 0.5 N NaOH); or (ii) 100% PEG200.
# AR protein [5] = assay: AR degradation in MDA-MB-453 cells (Western blotting); assay type: cell-based; details: 24 hr treatment
# Experimental: as §1, §2
# [6] = test system: AR-amplified prostate cancer cells; details: cited from earlier work
# [7] = prostate cancer Vcap cells, 24 h treatment
smiles,measurement,setting,value
"C[C@H]1CC2(CCN(c3ccc(C(=O)N4CCC(N5Cc6cc7c(cc6C5)C(=O)N(C5CCC(=O)NC5=O)C7=O)CC4)cc3)CC2)CN1c1ccc(C#N)c(Cl)c1 (stereo partly drawn) [Cpd. No. 307, 2-chloro-4-((3S)-8-(4-(4-(6-(2,6-dioxopiperidin-3-yl)-5,7-dioxo-3,5,6,7-tetrahydropyrrolo[3,4-f]isoindol-2(1H)-yl)piperidine-1-carbonyl)phenyl)-3-methyl-2,8-diazaspiro[4.5]decan-2-yl)benzonitrile]",DC90,AR protein [1]; [7],0.199 nM
same,DC50,"AR protein [1]; prostate cancer Vcap cells, 24 h treatment, read-out: DC50",0.046 nM
same,DC50,AR protein [2],0.9 nM
same,DC90,AR protein [2],3.1 nM
same,DC90,AR protein [3],0.11 nM
same,DC50,AR protein [3]; read-out: DC50,0.082 nM
same,F,[4]; PO 5 mg/kg vs IV 2 mg/kg,67%
same,AUC(0-t),"[4]; iv, 2 mg/kg, IV, dose 2 mg/kg, read-out: IV AUC(0 − t)",50500 ng·h/mL
same,clearance,"[4]; iv, 2 mg/kg, IV, dose 2 mg/kg",0.667 mL/min/kg
same,half-life,"[4]; iv, 2 mg/kg, IV, dose 2 mg/kg, read-out: IV T1/2 (converted)",4.34 h
same,Vd,"[4]; iv, 2 mg/kg, IV, dose 2 mg/kg",0.23 L/kg
same,Cmax,"[4]; po, 5 mg/kg",9120 ng/mL
same,Tmax,"[4]; po, 5 mg/kg",2 h
same,AUC(0-t),"[4]; po, 5 mg/kg, PO, dose 5 mg/kg, read-out: PO AUC(0 − t)",85200 ng·h/mL
same,half-life,"[4]; po, 5 mg/kg, PO, dose 5 mg/kg, read-out: PO T1/2 (converted)",4.4 h
"C[C@H]1CC2(CCN(c3ccc(C(=O)N4CCN(C5CN(c6ccc7c(c6)C(=O)N(C6CCC(=O)NC6=O)C7=O)C5)CC4)cc3)CC2)CN1c1ccc(C#N)c(Cl)c1 (stereo partly drawn) [Cpd. No. 293, 2-chloro-4-((3S)-8-(4-(4-(1-(2-(2,6-dioxopiperidin-3-yl)-1,3-dioxoisoindolin-5-yl)azetidin-3-yl)piperazine-1-carbonyl)phenyl)-3-methyl-2,8-diazaspiro[4.5]decan-2-yl)benzonitrile]",DC50,AR protein [1]; [7],0.031 nM
same,DC90,AR protein [1]; [7],0.41 nM
same,DC50,AR protein [2],0.14 nM
same,DC90,AR protein [2],0.23 nM
same,DC50,AR protein [3],0.3 nM
same,DC90,AR protein [3],0.33 nM
N#Cc1ccc(N2CC3(CN(C(=O)c4ccc(C5CCN(CC6CCN(c7ccc8c(c7)C(=O)N(C7CCC(=O)NC7=O)C8=O)CC6)CC5)cc4)C3)C2)cc1Cl (stereo not drawn) [compound 481],degradation at 10 nM,AR protein [5],B (>50% degradation but <90% (24 hr treatment))
same,degradation at 100 nM,AR protein [5],A (>90% degradation (24 hr treatment))
N#Cc1ccc(OC2CC3(C2)CN(C(=O)c2ccc(C4CCN(CC5CCN(c6ccc7c(c6)C(=O)N(C6CCC(=O)NC6=O)C7=O)CC5)CC4)cc2)C3)cc1Cl (stereo not drawn) [compound 480],degradation at 10 nM,AR protein [5],B (>50% degradation but <90% (24 hr treatment))
same,degradation at 100 nM,AR protein [5],A (>90% degradation (24 hr treatment))
"Cc1ncsc1-c1ccc(CNC(=O)C2C[C@@H](O)CN2C(=O)[C@@H](NC(=O)COCCCCOc2ccc(-c3ccc(N4C(=S)N(c5ccc(C#N)c(C(F)(F)F)c5)C(=O)C4(C)C)cc3)cc2)C(C)(C)C)cc1 (stereo partly drawn) [ARCC-4, (4R)-1-((S)-2-(2-(4-((4′-(3-(4-cyano-3-(trifluoromethyl)phenyl)-5,5-dimethyl-4-oxo-2-thioxoimidazolidin-1-yl)-[1,1′-biphenyl]-4-yl)oxy)butoxy)acetamido)-3,3-dimethylbutanoyl)-4-hydroxy-N-(4-(4-methylthiazol-5-yl)benzyl)pyrrolidine-2-carboxamide]","inducing apoptosis and inhibiting proliferation, compared with enzalutamide",[6],more potent and effective than enzalutamide
"C[C@H]1CC2(CCN(c3ccc(C(=O)N4CCC(N5CCN(c6ccc7c(c6)C(=O)N(C6CCC(=O)NC6=O)C7=O)CC5)CC4)cc3F)CC2)CN1c1ccc(C#N)c(Cl)c1 (stereo partly drawn) [Cpd. No. 511, 2-chloro-4-((3S)-8-(4-(4-(4-(2-(2,6-dioxopiperidin-3-yl)-1,3-dioxoisoindolin-5-yl)piperazin-1-yl)piperidine-1-carbonyl)-2-fluorophenyl)-3-methyl-2,8-diazaspiro[4.5]decan-2-yl)benzonitrile]",DC50,"AR protein [1]; VCaP cells, Table 6, read-out: VCaP DC50",< 1 nM
same,F,[4]; PO 3 mg/kg vs IV 1 mg/kg,28%
same,AUC(0-t),"[4]; iv, 1 mg/kg, IV, dose 1 mg/kg, read-out: IV AUC(0 − t)",9040 ng·h/mL
same,clearance,"[4]; iv, 1 mg/kg, IV, dose 1 mg/kg",1.67 mL/min/kg
same,half-life,"[4]; iv, 1 mg/kg, IV, dose 1 mg/kg, read-out: IV T1/2 (converted)",8 h
same,Vd,"[4]; iv, 1 mg/kg, IV, dose 1 mg/kg",0.9 L/kg
same,Cmax,"[4]; po, 3 mg/kg",668 ng/mL
same,Tmax,"[4]; po, 3 mg/kg",2.7 h
same,AUC(0-t),"[4]; po, 3 mg/kg, PO, dose 3 mg/kg, read-out: PO AUC(0 − t)",7520 ng·h/mL
same,half-life,"[4]; po, 3 mg/kg, PO, dose 3 mg/kg, read-out: PO T1/2 (converted)",6.4 h
